Test results reported in patent publication US8283373B2, “Inhibitors of cytosolic phospholipase A2” (Pfizer Inc., priority 2005, dated 2012).

Tests used:
[1] = target: T1, cPLA2α (Homo sapiens, UniProt P47712); assay: GLU Micelle Assay; assay type: biochemical
T1 sequence (P47712 1-749): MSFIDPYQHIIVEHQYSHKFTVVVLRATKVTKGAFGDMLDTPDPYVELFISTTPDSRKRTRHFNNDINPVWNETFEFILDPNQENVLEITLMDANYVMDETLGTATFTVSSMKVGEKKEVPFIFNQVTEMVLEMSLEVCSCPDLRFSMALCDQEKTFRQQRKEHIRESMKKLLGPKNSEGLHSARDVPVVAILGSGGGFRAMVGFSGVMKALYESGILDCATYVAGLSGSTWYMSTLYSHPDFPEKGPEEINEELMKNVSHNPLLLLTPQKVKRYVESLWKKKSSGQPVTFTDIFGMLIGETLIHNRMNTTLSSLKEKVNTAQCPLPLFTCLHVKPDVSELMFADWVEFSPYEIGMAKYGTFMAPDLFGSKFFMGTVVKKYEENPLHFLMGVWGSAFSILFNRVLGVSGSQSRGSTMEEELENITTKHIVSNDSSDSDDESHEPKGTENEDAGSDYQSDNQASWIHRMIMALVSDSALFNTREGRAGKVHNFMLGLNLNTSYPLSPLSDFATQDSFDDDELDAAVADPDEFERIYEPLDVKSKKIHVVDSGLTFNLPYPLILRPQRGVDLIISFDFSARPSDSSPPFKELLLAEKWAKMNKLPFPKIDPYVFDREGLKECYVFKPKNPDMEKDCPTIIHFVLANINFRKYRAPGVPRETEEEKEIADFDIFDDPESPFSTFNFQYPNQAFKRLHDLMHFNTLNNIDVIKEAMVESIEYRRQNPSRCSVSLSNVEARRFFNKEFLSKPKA
Procedure, shortened: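 Fluorogenic micelle assay with 1 μg/ml cPLA2α and 90 μM GLU substrate plus 120 μM DTPC in 940 μM Triton X-100, 50 mM Hepes pH 7.4, 0.3 mM EDTA, 1 mM CaCl2, 300 mM KCl. Fluorescence (ex 355/em 460) was read every 4 min for 84 min. Percent inhibition came from slopes relative to positive and negative controls.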

[2] = tested on: TXB2; assay: Rat Whole Blood Assay (A23187-stimulated TXB2); assay type: cell-based; details: Rattus norvegicus; A23187 5 μM
Procedure, shortened: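 Heparinized male Sprague-Dawley rat blood pre-incubated 15 min at 37 °C with compound or DMSO, then stimulated with 5 μM (final) A23187 for 10 min at 37 °C. Stopped with 20 mM EDTA; TXB2 in methanol-extracted plasma measured by ELISA.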

[3] = tested on: Human platelet aggregation; assay: Platelet Function Analyzer (PFA-100) study; assay type: cell-based; details: whole human blood
Experimental: Human platelet aggregation was studied using the platelet function analyzer (PFA-100®). Human blood was collected from volunteers who had denied taking any platelet inhibitory medications over the previous two weeks. Blood was collected in 3.2% sodium citrate Vacutainer tubes (Becton Dickinson). Tubes were inverted 5 times and the blood was transferred to 15 ml polypropylene conical tubes. […] Tubes were inverted 10 times to mix, and allowed to sit at room temperature for 10 minutes prior to run in PFA-100. The manufacturers protocol was followed for the PFA-100 using Collagen/Epinephrine cartridges (0.5% DMSO alone in whole blood gave closure times of 125+/−13.9 seconds). Maximum closure time is 300 seconds, as set by the manufacturer.
All compounds were efficacious in the platelet function assay.

[4] = tested on: FeCl3-induced arterial thrombosis; assay: FeCl3-induced model of arterial thrombosis; assay type: in vivo; details: rat, 25 mg/kg oral gavage 2 h before FeCl3 injury
Experimental: Two hours prior to induction of vascular injury, Sprague Dawley outbreed rats (80-100 gram of body weight) received 4-(3-{5-chloro-1-(diphenylmethyl)-2-[2-({[2-fluoro-6-(trifluoromethyl)benzyl]sulfonyl}amino)ethyl]-1H-indol-3-yl}propyl)benzoic acid (Example 14) or 4-(3-{5-chloro-1-(diphenylmethyl)-2-[2-({[2-(trifluoromethoxy)benzyl]sulfonyl}amino)ethyl]-1H-indol-3-yl}propyl)benzoic acid (Example 25) at a dose of 25 mg/kg by oral gavage. The total volume of gavage was 0.5 ml. The control group of animals had been treated with only vehicle. Fifteen minutes before vascular injury rats were anesthetized by an intramuscular injection of a ketamine/xylazyne mixture. Following anesthesia the left carotid artery was dissected and exposed for further measurements. For induction of prothrombotic injury, a round piece of filter paper (2 mm in diameter) soaked in 10% of FeCl3 solution was applied onto the wall of the exposed vessel. After 5 minutes the filter paper was removed and the 1PRB perivasular Doppler flow probe (Transonic Systems Inc.) was secured around the carotid artery to measure blood flow. Blood flow was recorded for a total period of 30 minutes using Transonic Flow Meter (model TS420, Transonic Systems Inc.) and Windaq data acquisition software.

[5] = tested on: serum thromboxane B2; assay: Thromboxane B2 levels in rats with FeCl3 induced thrombosis; assay type: in vivo, rat; details: rats subjected to ferric chloride injury, ELISA
Experimental: Blood was collected from rats that were dosed with vehicle, the compound of Example 14 or the compound of Example 25, and subjected to the ferric chloride Injury protocol above. Blood was collected from the vena cava and blood coagulation was allowed to take place for 1 hour at 37 degree Celsius. Serum was then isolated and serum thromboxane B2 levels were determined by ELISA.

[6] = tested on: experimental autoimmune encephalomyelitis (EAE); assay: Experimental autoimmune encephalomyelitis (EAE) model of multiple sclerosis; assay type: in vivo, mouse; details: administered from the time of immunization, or in mice with or close to EAE
Experimental: Six groups of B6 mice were immunized with MOG/CFA and injected with pertussis toxin to induce experimental autoimmune encephalomyelitis (EAE), an animal model of Multiple sclerosis. Three groups of mice were treated with vehicle, 4-{3-[1-benzhydryl-5-chloro-2-(2-{[(2,6-dimethylbenzyl)sulfonyl]amino}ethyl)-1H-indol-3-yl]propyl}benzoic acid (Compound A), or 4-{2-[1-benzhydryl-5-chloro-2-(2-{[(3,4-dichlorobenzyl)sulfonyl]amino}-ethyl)-1H-indol-3-yl]ethoxy}benzoic acid (Compound B) from the day of Immunization (orally, 100 mg/kg, twice/day). Another three groups of mice were treated with vehicle, Compound A or Compound B starting on the day of EAE onset (day 15) (orally, 100 mg/kg, twice/day). […] The results are shown in the Table below, wherein mean clinical score is a mean of clinical evaluation of each animal for that particular day.
Animals are Scored as Follows:
• 0—no clinical signs of EAE (no paralysis) • 1—paralysis of tail • 2—paralysis of tail and partial hind leg paralysis • 3—paralysis of tail and complete hind leg paralysis • 4—paralysis of tail, complete hind leg paralysis and a partial front leg paralysis • 5—moribund animal (all four limbs paralyzed, lack of responsiveness, these mice were immediately euthanized).
In addition, the compounds of Examples 14 and 25 were also found to be efficacious in the mouse experimental autoimmune encephalomyelitis (EAE) model of multiple sclerosis. As shown by the data in the Table below, these compounds led to a delayed onset of disease and reduced severity of disease when administered orally in doses as low as 2.5 mg/kg.

[7] = tested on: serum thromboxane B2; assay: Thromboxane B2 levels in the ApoE KO mouse model; assay type: in vivo; details: ApoE KO mice, 10 mg/kg by oral gavage; vehicle 267.9±34.3
Experimental: Blood was collected through the retro-orbital siunus and left to coagulate at 37° C. for one hour. Serum was then isolated and assayed for thromboxane B2 by ELISA.
In a separate experiment, ApoE KO mice were dosed with vehicle or the compound of Example 25 at 10 mg/kg by oral gavage. Blood was collected through the retro-orbital siunus and left to coagulate at 37° C. for one hour. Serum was then isolated and assayed for thromboxane B2 by ELISA.

Compound	IC50 [1]	IC50 [2]	platelet aggregation in human blood, in vitro (PFA-100, FIG. 1) [3]	PFA-100 closure time ([3]; Collagen/Epinephrine cartridges, 1.25 μg/ml)	blood flow and thrombus formation (FIG. 2) [4]	serum thromboxane B2 levels (FIG. 3) [5]	prevention of EAE / reduction of clinical severity [6]	efficacy in PFA-100 platelet function assay ([3]; at concentrations as low as 0.3 μg/ml)	serum Thromboxane concentration [7]
O=C(O)c1ccc(CCCc2c(CCNS(=O)(=O)Cc3c(F)cccc3C(F)(F)F)n(C(c3ccccc3)c3ccccc3)c3ccc(Cl)cc23)cc1 [Example 14, 4-(3-{5-chloro-1-(diphenylmethyl)-2-[2-({[2-fluoro-6-(trifluoromethyl)benzyl]sulfonyl}amino)ethyl]-1H-indol-3-yl}propyl)benzoic acid]	30 nM	20 nM	inhibition of platelet aggregation	increased closure time	improved blood flow and reduction of thrombus formation	reduction of serum thromboxane B2 levels	can prevent EAE		
O=C(O)c1ccc(CCCc2c(CCNS(=O)(=O)Cc3ccccc3OC(F)(F)F)n(C(c3ccccc3)c3ccccc3)c3ccc(Cl)cc23)cc1 [Example 25, 4-(3-{5-chloro-1-(diphenylmethyl)-2-[2-({[2-(trifluoromethoxy)benzyl]sulfonyl}amino)ethyl]-1H-indol-3-yl}propyl)benzoic acid]	13 nM	30 nM	inhibition of platelet aggregation			reduction of serum thromboxane B2 levels	can prevent EAE	efficacious	9.4 ± 5.0 ng/mL
O=C(O)c1ccc(CCCc2c(CCNS(=O)(=O)CCc3ccccc3C(F)(F)F)n(C(c3ccccc3)c3ccccc3)c3ccc(Cl)cc23)cc1 [Example 15, 4-[3-(5-chloro-1-(diphenylmethyl)-2-{2-[({2-[2-(trifluoromethyl)phenyl]ethyl}sulfonyl)amino]ethyl}-1H-indol-3-yl)propyl]benzoic acid]	68 nM	120 nM			improved blood flow and reduction of thrombus formation				
